What was measured:
[1] = test system: Candida albicans ATCC 10231, Pseudomonas aeruginosa ATCC 9027, Escherichia coli ATCC 8739 and Staphylococcus aureus ATCC 6538; assay: Preservative efficacy, overall result on the four standard U.S.P. organisms; format: cell-based; details: Monolaurin at 0.01% w/v in the emulsion, organisms tested
Experimental: The said aliquots were incubated at a temperature of 20-25° C. for fungal culture and 30 to 35° C. for bacterial culture as recommended under “Antimicrobial effectiveness testing” in United States Pharmacopeia, Chapter 51 (U.S.P. <51>).
(for fungal cultures) and 32° C.±2° C. (for bacterial cultures). The viable counts of the test organisms were determined after 24 hours and 48 hours.

Swiss Albino Mice = assay: Safety study with Monolaurin, daily intravenous administration for 7 days (Example XII); details: Monolaurin group versus EDTA group
Experimental: Compositions of Example IX, X and M were studied along with 5% Dextrose Injection as control.
The objective of this study was to access the safety of Monolaurin as such and in comparison with EDTA when administered into mice by an intravenous route.
Forty healthy Swiss albino mice weighing on an average 20-22 g were used in this study.
Toxicity was determined after administration of study materials.
Data was recorded as Mean +SD and median values for histopathological data.
Student's paired t-test was used to compare basal and final values of the parametric data within the same group and Student's unpaired t-test was used to compare values between two different groups. A ‘p’ value of <0.05 was considered as significant.
All experimental animals were observed daily for seven days for following parameters:
Each animal was weighed before the administration of study material and daily during the treatment period.

rats = details: administered orally; cited from earlier work
[2] = cited from earlier work
[3] = test system: broad spectrum microbial growth; details: Edetate at concentrations of 0.0025% and below; cited from earlier work

| Structure (SMILES) | effectiveness as preservative (preventing a growth of not more than 10 fold) [1] | Histopathological data (Swiss Albino Mice) | LD50 (rats) | solubility in aqueous media ([2]; aqueous media) | solubility in fat solvents ([2]; chloroform, benzene, ethanol, or acetone) | preventing a no more than 10 fold increase in broad spectrum microbial growth [3] |
| --- | --- | --- | --- | --- | --- | --- |
| CCCCCCCCCCCC(=O)OCC(O)CO (stereo not shown) [Monolaurin] | effective as a preservative | compare well | about 53,000 mg/kg body weight | insoluble | highly soluble |  |
| O=C([O-])CN(CCN(CC(=O)[O-])CC(=O)O)CC(=O)O.[Na+].[Na+] [EDTA, Disodium edetate, reference compound] |  | compare well |  |  |  | ineffective |

— patent US20080262084A1, “Stable Emulsion Compositions for Intravenous Administration Having Preservatie Efficacy” (priority 2004, published 2008)
